Data on 2 molecules can be found in patent US12532888B2, “Methods and uses of a mixture comprising alpha-cypermethrin and dinotefuran for combating or controlling mosquitoes” (priority 2020, dated 2026).

For this assay, the system named is yellow fever mosquitoes (Aedes aegypti). Kind of assay: whole plant or invertebrate. The following applies: for Colby Expected: 3 days after exposure. Here is the method:
Glass vials (20 mL scintillation) were treated with 445 μL of varying concentrations of α-cypermethrin dissolved in acetone, respectively dinotefuran or mixtures of α-cypermethrin and dinotefuran in the indicated ratios. Vials were turned on their sides and placed on an automated roller table. The vials were rolled (6 rpm) uncapped to allow an even coating of the treatment.
After rolling, vials were allowed to completely dry for at least an hour. Each treatment was replicated five times. Prior to exposure, yellow fever mosquitoes (Aedes aegypti) were incapacitated using a chill table. Approximately six mosquitoes were placed into each vial and were exposed to treatments at room temperature for exactly one hour. A small amount of CO2 was used to incapacitate the mosquitoes to facilitate removal from treatment. Insects were then transferred to 16 oz plastic holding containers. A cotton wick moistened with 10% sugar water was provided in each container. Holding containers were moved into an incubator with environmental conditions of 27° C. and 80% relative humidity. Wicks were rehydrated daily and mortality was assessed at 3 days after exposure (DAE).
Ataxia+mortality data were used to determine whether there was a synergistic effect in the combined use of dinotefuran and α-cypermethrin.
Abbott's correction for control mortality and the Colby method for testing synergy were used to analyze combination data. […] Colby's expected mortality per combination observation=% mortality (A)+% mortality (B)−(% mortality (A)×% mortality (B))/100. Synergy ratio=% observed mortality/% Colby expected mortality.
Additive interactions have synergy ratios equal to 1, antagonistic interactions have synergy ratios of less than 1, and synergistic interactions have synergy ratios of greater than 1.

As for `CC1(C)C(C=C(Cl)Cl)C1C(=O)OC(C#N)c1cccc(Oc2ccccc2)c1` (racemic) [Alpha-cypermethrin, racemate comprising (R)-α-cyano-3-phenoxybenzyl (1S, 3S)-3-(2,2-dichlorovinyl)-2,2-dimethylcyclopropanecarboxylate; (S)-α-cyano-3-phenoxybenzyl (1R, 3R)-3-(2,2-dichlorovinyl)-2,2-dimethylcyclopropanecarboxylate], for the setting “Aedes aegypti, 72 h”, the mortality at 0.00732 mg/m2 was 13.9%. The “Colby Expected” value was determined as 13.9% (Table 1, expected mortality of the combination 0.00732 + 0.0732 mg/m^2 by Colby's formula) and 13.9% (Table 2, expected mortality of the combination 0.00732 + 7.32 mg/m^2 by Colby's formula).
As for `CNC(=N[N+](=O)[O-])NCC1CCOC1` (racemic) [Dinotefuran, (RS)-1-methyl-2-nitro-3-(tetrahydro-3-furylmethyl) guanidine], where the note is “Aedes aegypti, 72 h”, the mortality at 0.0732 mg/m2 was 0% and the mortality at 7.32 mg/m2 is 0%.

What is called mortality is the percentage killed.
